Measured values published in patent US9719981B2, “RAC1 inhibitors for the treatment of alport glomerular disease” (Father Flanagan's Boys' Home, priority 2012, dated 2017).

What was measured:
[1] = tested on: 129 Sv autosomal Alport mice; assay: Sitaxentan treatment of 129 Sv autosomal Alport mice; format: in vivo, mouse
Procedure: FIG. 32. […] At least 6 glomeruli from at least 3 independent animals per group were analyzed by quantifying red fluorescence in circumferential capillary loops (defined by laminin α5 immunostaining in green) using NIH image J software. Mesangial angles were excluded. A) An example of how the capillaries were partitioned for these measures. B) Immunogold labeling for integrin α8 in a filopodial cross-section on the sub-endothelial aspect of an Alport capillary loop (arrow). Note the absence of immunogold labeling in the podocyte pedicles (asterisks) and the fenestrated endothelium (arrowheads). C) Quantitative results for red fluorescence in the capillary loops.
FIG. 33. […] Urine was collected at the indicated time points and analyzed for albumin using an ELISA kit. Albumin measures were normalized to urinary creatinine. Note that measurable albumin in the Sitaxentan-treated mice was not detected until 6 weeks of age indicating a delayed onset of glomerular disease.
129 Sv autosomal Alport mice were given Sitaxentan once daily by oral gavage from 2 weeks to 7 weeks of age. Kidney cryosections were immunostained using antibodies for laminin α2 and integrin α8 to determine the effect of drug treatment on laminin 211 deposition in the GBM or laminin α5 and integrin α8 to determine the degree of mesangial filopodial invasion in the glomerular capillaries. In addition, transmission electron microscopy was used to determine whether the ETAR antagonist ameliorates GBM damage.

CDC42 = assay: ELISA for GTP-CDC42 in endothelin-1 treated mesangial cells; format: cell-based, mouse
Procedure: (§1) FIG. 30. Treatment of mesangial cells with endothelin-1 activates CDC42 and induces the formation of drebrin-positive actin microspikes; microspikes and CDC42 activation are inhibited by pre-treatment of cells with Sitaxentan. A) Cultured mesangial cells were serum starved, pretreated for 1 hour with or without Sitaxentan, treated for 30 minutes with endothelin-1, fixed with acetone, and dual stained with anti-drebrin antibodies (red) and phalloidin (green). Drebrin-positive microspikes (filopodia, denoted by arrowheads) are highly abundant on the endothelin-treated cells, but not detected when the cells are pre-treated with Sitaxentan. B) Cells were treated as in A, then lysates prepared and assayed by ELISA for GTP-CDC42.
(§2) To address this, serum-starved cultured mesangial cells were pre-treated (or not) with the ETAR antagonist, Sitaxentan, and then stimulated the cells with endothelin-1. Cells were then dual labeled with anti-drebrin antibodies (drebrin stabilizes actin filaments in filopodia) and phalloidin. […] Lysates from cultured mesangial cells were further analysed using these same conditions for the activation of CDC42 using a commercial ELISA assay for GTP-CDC42.

cultured mesangial cells = assay: Endothelin-1 induced drebrin-positive actin microspikes in mesangial cells; format: cell-based, mouse
Procedure: as §1, §2

[2] = tested on: 129 autosomal Alport mice; assay: Endothelin receptor blockade (Bosentan or Sitaxentan) in 129 autosomal Alport mice; format: in vivo, mouse; details: for Mesangial filopodial invasion and deposition of laminin 211 in the glomerular capillaries: Alport mouse model; for Ameliorating Alport renal disease (comparison of the two antagonists) / GBM structural abnormalities / Glomerular expression of MMPs and pro-inflammatory cytokines / Mesangial process invasion of the glomerular capillaries / Onset and progression of proteinuria: treated from 2 to 7 weeks of age
Procedure: With this example, 129 autosomal Alport mice were given either Bosentan (an endothelin A and B receptor antagonist) or Sitaxentan (an endothelin A receptor antagonist) from 2 to 7 weeks of age. Mice were analyzed longitudinally for proteinuria and BUN, glomerular RNA for gene expression of MMPs and pro-inflammatory cytokines by real time RT-PCR, and tissue was analyzed histochemistry and immunohistochemistry for pathologic changes.
To determine whether ETR antagonism prevents mesangial filopodia formation in vivo, we treated 129 Sv Alport mice with either Bosentan (ETAR and ETBR antagonist) or Sitaxentan (an ETAR antagonist) from 2 weeks to 7 weeks of age.

[3] = tested on: cultured wild type mesangial cells; assay: LPS-induced actin cytoskeletal rearrangement (phalloidin staining); format: cell-based, mouse; details: 10 ng/ml LPS; 10 μM Rac-1 inhibitor or 1 μM CDC42 inhibitor; blinded
Procedure: Activation of mesangial cell cultures by treatment with LPS. Sub-confluent mesangial cells were tryspinized; plated at low density on Rat tail type 1 collagen (BD Biosciences) coated cytology slides (VWR) and incubated overnight in 1% FCS-containing media. One hour after the addition of serum-free media, 1 μM CDC42 Inhibitor (KSC-23-233) and 10 μM Rac-1 Inhibitor, NSC-23766 (Tocris) were added to individual slides and allowed to incubate for an additional hour. 10 ng/ml Lipopolysaccharides (Sigma-Aldrich) was added to cells, incubated 1 hour, fixed in ice cold acetone for 5 minutes and allowed to air dry ˜2 hours. Cells were stained with a 1:100 dilution of antibodies specific for CDC42 (10155-1-AP, PROTEINTECH™), and phalloidin (Molecular Probes) imaged. Untreated, LPS alone and LPS plus inhibitors treatments were repeated on two different derivations of primary mesangial cells with qualitatively consistent results.

[4] = tested on: primary cultured mesangial cells; assay: Boyden chamber (Transwell) cell migration assay, wild type mesangial cells; format: cell-based, mouse; details: relative to 10% FCS, p<0.05
Procedure: MES Migration (insert). Transwell cell migration assays were performed as described by Daniel et al. (Daniel et al., 2012, Lab Invest; 92(6): 812-26) with some modifications. 8 micron, 24-well plate control inserts (BD Bioscience, Bedford, Mass.) were coated overnight at 4° C. with 100 μl of 0.1% gelatin/PBS then washed 1× with PBS. MES cultures were incubated in 1% FCS overnight, then 0.05% BSA-containing media for at least 8 hours, washed 1× with PBS and carefully tryspinized to ensure a single cell suspension and limited “clumping” of cells. After serum-neutralization and subsequent centrifugation, ˜100,000 cells were resuspended in 1.5 mls of 0.05% BSA media containing activators/inhibitors. The wells of a 24-well plate were filled with 0.75 mls of 10% FCS-containing media plus activators/inhibitors (excluding 0.05% BSA control well). 0.5 ml of cell-suspension was loaded into the gelatin-coated insert and the insert placed in a well. Wells were visually inspected for bubbles beneath insert and equal distribution of cell-suspension. Cells were allowed to migrate overnight (˜18 hrs). Using a moistened cotton swab, non-migrated cells were liberated from the apical-side of the insert by gentle but firm rubbing. A second swab repeated the removal and was followed by a single wash with PBS. Inserts were fixed, stained and washed (2×) in companion 24 well plate(s) containing 0.5 mls MEOH, 0.5 mls 1% Toluidine Blue in 1% Borax and 0.5 mls distilled H2O, respectively. Inserts were air dried and counted at 100× magnification. Five fields were counted on each insert including one center and four periphery areas. Data was expressed as relative to 10% FCS control well (set equal to one).

[5] = tested on: integrin α1-null mesangial cells; assay: Boyden chamber (Transwell) cell migration assay, integrin α1-null mesangial cells; format: cell-based, mouse; details: relative to 10% FCS
Procedure: MES Migration (insert). Transwell cell migration assays were performed as described by Daniel et al. (Daniel et al., 2012, Lab Invest; 92(6): 812-26) with some modifications. 8 micron, 24-well plate control inserts (BD Bioscience, Bedford, Mass.) were coated overnight at 4° C. with 100 μl of 0.1% gelatin/PBS then washed 1× with PBS. MES cultures were incubated in 1% FCS overnight, then 0.05% BSA-containing media for at least 8 hours, washed 1× with PBS and carefully tryspinized to ensure a single cell suspension and limited “clumping” of cells. After serum-neutralization and subsequent centrifugation, ˜100,000 cells were resuspended in 1.5 mls of 0.05% BSA media containing activators/inhibitors. The wells of a 24-well plate were filled with 0.75 mls of 10% FCS-containing media plus activators/inhibitors (excluding 0.05% BSA control well). 0.5 ml of cell-suspension was loaded into the gelatin-coated insert and the insert placed in a well. Wells were visually inspected for bubbles beneath insert and equal distribution of cell-suspension. Cells were allowed to migrate overnight (˜18 hrs). […] Inserts were air dried and counted at 100× magnification. Five fields were counted on each insert including one center and four periphery areas. Data was expressed as relative to 10% FCS control well (set equal to one).

[6] = tested on: Alport mice on the 129 Sv background; assay: Treatment of Alport mice with Rac1 inhibitor; format: in vivo, mouse; details: injected once daily from 2 weeks to 6 weeks of age; relative to saline
Procedure: FIG. 9. Treatment of Alport mice with Rac1 inhibitors partially ameliorates mesangial cell process invasion of the glomerular capillary tufts. […] Kidney cryosections were analyzed by dual immunofluorescence immunostaining using antibodies against either laminin α2 (B and E) or integrin α8 (A and D). […] represent a merging of results from staining with laminin α2 and integrin α8. The degree of mesangial process invasion of the glomerular capillary tufts was ameliorated in the Rac1 inhibitor-treated mice relative to mice injected with saline.
To examine the effect of Rac1 inhibitors on Alport glomerular disease progression, either wild type or Alport mice were treated with inhibitors by IP injection from 2 weeks to 6 weeks of age. Glomeruli were examined for mesangial process invasion of the capillary tufts by dual immunofluorescence microscopy using antibodies specific for either integrin α8 or the GBM marker laminin α5. […] Combined, the data in FIG. 7, FIG. 8, and FIG. 9 confirm that mesangial process invasion of the glomerular capillaries is a Rac1-dependent process, and that Rac1 activation is attenuated by integrin α1 deletion both in vitro and in vivo.
Immunofluorescence microscopy. Fresh frozen kidneys were sectioned at 8 μm and acetone fixed. […]

[7] = tested on: 129 Sv autosomal Alport mice; assay: Bosentan treatment of 129 Sv autosomal Alport mice; format: in vivo, mouse
Procedure: It is known that matrix metalloproteinases (MMPs), transforming growth factor beta 1 (TGF-β1), and monocyte chemoattractant protein-1 (MCP-1) contribute to the progression of Alport glomerular pathology (Cosgrove et al., 2000, Am J Pathol; 157(5):1649-59; Rao et al., 2006, Am J Pathol; 169(1):32-46; Eisberg et al., 2006, PLoS Med; 3(4):e100). 129 Sv autosomal Alport mice and wild type littermates were treated with 100 mg/kg Bosentan or with […] vehicle by oral gavage from 2 to 7 weeks of age. One kidney was prepared for immunohistochemistry, and the other used for glomerular RNA isolation. […] MMP-9 expression was not affected; however this MMP has been shown not to contribute to progression of Alport glomerular disease (Andrews et al., 2000, Am J Pathol; 157(1):303-11). Kidney cryosections from these same mice were immunostained using antibodies against fibronectin, to assess interstitial fibrosis, and CD11b, to assess the degree of monocytic interstitial infiltration.

[8] = pretreated 1 hour, endothelin-1 for 30 minutes
[9] = serum-starved cells, 30 minutes
[10] = 100 mg/kg oral gavage from 2 to 7 weeks of age, vs vehicle

For `Cc1cc2c(cc1CC(=O)c1sccc1S(=O)(=O)Nc1onc(C)c1Cl)OCO2` [Sitaxentan, N-(4-chloro-3-methyl-1,2-oxazol-5-yl)-2-[2-(6-methyl-2H-1,3-benzodioxol-5-yl)acetyl]thiophene-3-sulfonamide], the “GBM architecture (transmission electron microscopy)” value ([1]; 7 weeks of age) was “normalization”, the “Interstitial fibrosis (fibronectin immunostaining)” value ([1]; 7 weeks of age) was “profoundly ameliorated” and the “Monocyte recruitment to the renal interstitium (CD11b immunostaining)” value ([1]; 7 weeks of age) was “profoundly ameliorated”. For the same compound, the “Capillary integrin α8 immunostaining (quantified red fluorescence)” value ([1]; at least 6 glomeruli from at least three mice per group) was “normalization”, the “Age at which proteinuria was first detected” value ([1]; normally detected by 3 weeks of age) was 6 weeks of age and the “Mesangial filopodial invasion of glomerular capillaries” value ([1]; once daily oral gavage from 2 weeks to 7 weeks of age, vs vehicle) was “near complete absence”. The “Proteinuria after the onset” value ([1]; urinary albumin normalized to creatinine) was “significantly reduced”, the “Glomerular expression of MMP-10, -12 and MCP-1 compared with the reduction seen with Bosentan” value ([1]; with the exception of TGF-β1) was “quantitatively similar results” and the “Endothelin-1 induced CDC42 activation (GTP-CDC42), with antagonist pretreatment” value (CDC42; [8]) was “prevents”. For the same compound, the “Endothelin-1 induced formation of drebrin-positive microspikes, with antagonist pretreatment” value (cultured mesangial cells; [8]) was “blocks”, the “Mesangial filopodial invasion and deposition of laminin 211 in the glomerular capillaries” value [2] was “highly effective” and the “Ameliorating Alport renal disease (comparison of the two antagonists)” value [2] was “equally effective”. For the same compound, the GBM structural abnormalities [2] was “ameliorating”, the “Glomerular expression of MMPs and pro-inflammatory cytokines” value [2] was “significantly reducing” and the “Mesangial process invasion of the glomerular capillaries” value [2] was “markedly reduced”. For the same compound, the “Onset and progression of proteinuria” value [2] was “delaying the onset and progression”.

With ML141 the “LPS-induced morphological change (filopodia / actin spikes) in presence of inhibitor” value [3] was “could not be distinguished in blinded experiments form untreated wild type mesangial cells”, the “Migration of wild type mesangial cells” value [4] was “significantly reduced” and the “Integrin α1-null mesangial cell migration” value [5] was “unaffected”.

`CCN(CC)CCCC(C)Nc1nc(C)cc(Nc2ccc3nc(C)cc(N)c3c2)n1` (centres unmarked) [NSC 23766] was tested, and the “Degree of mesangial process invasion of the glomerular capillary tufts” value [6] was “ameliorated”, the “LPS-induced morphological change (filopodia / actin spikes) in presence of inhibitor” value [3] was “could not be distinguished in blinded experiments form untreated wild type mesangial cells” and the “Migration of wild type mesangial cells” value [4] was “significantly reduced”. For the same compound, the “Integrin α1-null mesangial cell migration” value [5] was “unaffected”.

With “endothelin-1: stimulus activating endothelin receptors on mesangial cells” the “CDC42 activation (GTP-CDC42) on stimulation” value (CDC42; [9]) was “significantly activates” and the “Formation of drebrin-positive filopodial microspikes on stimulation” value (cultured mesangial cells; [9]) was “induces”.

In the case of `CCn1c(-c2nonc2N)nc2c(C#CC(C)(C)O)ncc(OC[C@H]3CCCNC3)c21` [GSK 690693], the “Migration of wild type mesangial cells” value [4] was “not affected”.

With `COc1ccccc1Oc1c(NS(=O)(=O)c2ccc(C(C)(C)C)cc2)nc(-c2ncccn2)nc1OCCO` [Bosentan, 4-tert-butyl-N-[6-(2-hydroxy-ethoxy)-5-(2-methoxy-phenoxy)[2,{acuteover (2)}]-bipyrimidin-4-yl]-benzenesulfonamide monohydrate] the “Mesangial filopodial invasion and deposition of laminin 211 in the glomerular capillaries” value [2] was “highly effective”, the “Ameliorating Alport renal disease (comparison of the two antagonists)” value [2] was “equally effective” and the GBM structural abnormalities [2] was “ameliorating”. For the same compound, the “Glomerular expression of MMPs and pro-inflammatory cytokines” value [2] was “significantly reducing”, the “Mesangial process invasion of the glomerular capillaries” value [2] was “markedly reduced” and the “Onset and progression of proteinuria” value [2] was “delaying the onset and progression”. The “Glomerular MMP-9 expression” value [7, 10] was “not affected”, the “Glomerular mRNA expression of IL-6” value [7, 10] was “significant reduction” and the “Glomerular mRNA expression of MMP-10” value [7, 10] was “significant reduction”. The “Glomerular mRNA expression of MMP-12” value [7, 10] was “significant reduction”, the “Glomerular mRNA expression of TGF-β1” value [7, 10] was “significant reduction” and the “Interstitial fibrosis (fibronectin immunostaining)” value ([7]; 7 weeks of age, vs vehicle) was “near complete blockade”. For the same compound, the “Mesangial process invasion of glomerular capillaries (integrin α8 / laminin α5 immunostaining)” value ([7]; 7 weeks of age, vs vehicle) was “largely localized to the mesangial matrix, with occasional interposition into the capillary loops observed”, the “Monocytic interstitial infiltration (CD11b immunostaining)” value ([7]; 7 weeks of age, vs vehicle) was “near complete blockade” and the “Glomerular expression of MCP-1” value ([7]; Bosentan-treated Alport mice vs vehicle) was “significantly reduced”.
